Assay [1] has as its target T1, full-length human PRMT1 isoform 1 (GST-tagged) (Homo sapiens, UniProt Q99873).
T1 construct: GST-tagged PRMT1 was eluted with 50 mM Tris, 2 mM glutathione, pH 7.8, dialysed in buffer A and concentrated; made in house; host or cells: High Five insect cells (baculovirus)
Kind of assay: PRMT1 biochemical assay (3H-SAM Flashplate, histone H4 36-50 peptide). Conditions: 0.5 nM PRMT1, 30 min preincubation, 20 nM peptide. The source says: S-adenosylmethionine (SAM), S-adenosylhomocysteine (SAH), bicine, Tween20, dimethylsulfoxide (DMSO), bovine skin gelatin (BSG), and Tris(2-carboxyethyl)phosphine hydrochloride solution (TCEP) were purchased from Sigma-Aldrich at the highest level of purity possible. ^3H-SAM was purchase from American Radiolabeled Chemicals with a specific activity of 80 Ci/mmol. 384-well streptavidin Flashplates were purchased from PerkinElmer.
Peptide representative of human histone H4 residues 36-50 was synthesized with an N-terminal linker-affinity tag motif and a C-terminal amide cap by 21st Century Biochemicals. The peptide was purified by high-performance liquid chromatography (HPLC) to greater than 95% purity and confirmed by liquid chromatography mass spectrometry (LC-MS). The sequence was Biot-Ahx-[…]-amide (SEQ ID NO.:1).
Full-length human PRMT1 isoform 1 (NM_001536.5) transcript clone was amplified from an HEK 293 cDNA library, incorporating flanking 5′ sequence encoding a FLAG tag ([…]) (SEQ ID NO.:2) fused directly to Met 1 of PRMT1. The amplified gene was subcloned into pFastBacI (Life Technologies) modified to encode an N-terminal GST tag and a TEV cleavage sequence
Recombinant baculovirus were generated according to Bac-to-Bac kit instructions (Life Technologies). Protein over-expression was accomplished by infecting exponentially growing High Five insect cell culture at 1.5×10^6 cell/ml with 1:100 ratio of virus. Infections were carried out at 27° C. for 48 hours, harvested by centrifugation, and stored at −80° C. for purification.
GST-tagged PRMT1 was eluted with 50 mM Tris, 2 mM glutathione, pH 7.8, dialysed in buffer A and concentrated to 1 mg/mL. The purity of recovered protein was 73%. Reference: Wasilko, D. J. and S. E. Lee: “TIPS: titerless infected-cells preservation and scale-up” Bioprocess J., 5 (2006), pp. 29-32.
General Procedure for PRMT1 Enzyme Assays on Peptide Substrates.
The assays were all performed in a buffer consisting of 20 mM Bicine (pH=7.6), 1 mM TCEP, 0.005% BSG, and 0.002% Tween 20, prepared on the day of use. Compounds in 100% DMSO (1 ul) were spotted into a polypropylene 384-well V-bottom plates (Greiner) using a Platemate Plus outfitted with a 384-channel head (Thermo Scientific). DMSO (1 ul) was added to Columns 11, 12, 23, 24, rows A-H for the maximum signal control and 1 ul of SAH, a known product and inhibitor of PRMT1, was added to columns 11, 12, 23, 24, rows I-P for the minimum signal control. A cocktail (40 ul) containing the PRMT1 enzyme was added by Multidrop Combi (Thermo-Fisher). The compounds were allowed to incubate with PRMT1 for 30 min at room temperature, then a cocktail (10 ul) containing SAM and peptide was added to initiate the reaction (final volume=51 ul). The final concentrations of the components were as follows: PRMT1 was 0.5 nM, ^3H-SAM was 200 nM, non-radiolabeled SAM was 1.5 uM, peptide was 20 nM, SAH in the minimum signal control wells was 1 mM, and the DMSO concentration was 2%. The assays were stopped by the addition of non-radiolabeled SAM (10 ul) to a final concentration of 300 uM, which dilutes the ^3H-SAM to a level where its incorporation into the peptide substrate is no longer detectable. 50 ul of the reaction in the 384-well polypropylene plate was then transferred to a 384-well Flashplate and the biotinylated peptides were allowed to bind to the streptavidin surface for at least 1 hour before being washed once with 0.1% Tween20 in a Biotek ELx405 plate washer. The plates were then read in a PerkinElmer TopCount plate reader to measure the quantity of ^3H-labeled peptide bound to the Flashplate surface, measured as disintegrations per minute (dpm) or alternatively, referred to as counts per minute (cpm).
(§1) Where dpm=disintegrations per minute, cmpd=signal in assay well, and min and max are the respective minimum and maximum signal controls. […]

The target of assay [2] is full-length human PRMT6 (Flag- and His-tagged) (Homo sapiens, UniProt Q96LA8). Kind of assay: PRMT6 biochemical assay (3H-SAM Flashplate, histone H4 36-50 K44me1 peptide). The following applies: 1 nM PRMT6, 30 min preincubation, 75 nM peptide.
full-length human PRMT6 (Flag- and His-tagged), sequence (Q96LA8 with tags, fused parts or gaps): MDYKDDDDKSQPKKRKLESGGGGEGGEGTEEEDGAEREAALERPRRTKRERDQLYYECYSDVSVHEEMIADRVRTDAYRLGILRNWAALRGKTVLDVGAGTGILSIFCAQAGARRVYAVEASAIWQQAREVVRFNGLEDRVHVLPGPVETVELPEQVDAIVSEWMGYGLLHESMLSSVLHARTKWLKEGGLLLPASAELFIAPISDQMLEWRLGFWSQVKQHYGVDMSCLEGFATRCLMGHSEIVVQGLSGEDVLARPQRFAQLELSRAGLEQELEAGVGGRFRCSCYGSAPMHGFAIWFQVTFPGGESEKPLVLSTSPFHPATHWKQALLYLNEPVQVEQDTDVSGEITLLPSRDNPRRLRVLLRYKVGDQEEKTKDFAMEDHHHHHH
Text: S-adenosylmethionine (SAM), S-adenosylhomocysteine (SAH), bicine, Tween20, dimethylsulfoxide (DMSO), bovine skin gelatin (BSG), sodium butyrate and Tris(2-carboxyethyl)phosphine hydrochloride solution (TCEP) were purchased from Sigma-Aldrich at the highest level of purity possible. ^3H-SAM was purchase from American Radiolabeled Chemicals with a specific activity of 80 Ci/mmol. 384-well streptavidin Flashplates were purchased from PerkinElmer.
Peptide representative of human histone H4 residues 36-50 was synthesized with an N-terminal linker-affinity tag motif and a C-terminal amide cap by 21st Century Biochemicals. The peptide was purified by high-performance liquid chromatography (HPLC) to greater than 95% purity and confirmed by liquid chromatography mass spectrometry (LC-MS). The sequence was Biot-Ahx-[…]-amide and contained a monomethylated lysine at position 44 (SEQ ID NO.:5).
Full-length human PRMT6 (NM_018137.2) transcript clone was amplified from an HEK 293 cDNA library, incorporating a flanking 5′ sequence encoding a FLAG tag ([…]) (SEQ ID NO.:6) fused directly to Ser 2 of PRMT6 and a 3′ sequence encoding a hexa His sequence (HHHHHH) (SEQ ID NO.: 17) fused directly to Asp 375. The amplified gene was subcloned into pFastBacMam (Viva Biotech).
Recombinant baculovirus were generated according to Bac-to-Bac kit instructions (Life Technologies). […] Infections were carried out at 37° C. for 48 hours, harvested by centrifugation, and stored at −80° C. for purification.
Column was washed with 20 mM imidazole in the same buffer and Flag-PRMT6-His was eluted with 150 mM imidazole. Pooled fractions were dialysed against buffer Ni-A and further purified by anti-flag M2 affinity chromatography. Flag-PRMT6-His was eluted with 200 ug/ml FLAG peptide in the same buffer. Pooled fractions were dialysed in 20 mM Tris, 150 mM NaCl, 10% glycerol and 5 mM β-mercaptoethanol, pH 7.8. The purity of recovered protein was 95%.
General Procedure for PRMT6 Enzyme Assays on Peptide Substrates.
The assays were all performed in a buffer consisting of 20 mM Bicine (pH=7.6), 1 mM TCEP, 0.005% BSG, and 0.002% Tween 20, prepared on the day of use. Compounds in 100% DMSO (1 ul) were spotted into a polypropylene 384-well V-bottom plates (Greiner) using a Platemate Plus outfitted with a 384-channel head (Thermo Scientific). DMSO (1 ul) was added to Columns 11, 12, 23, 24, rows A-H for the maximum signal control and 1 ul of SAH, a known product and inhibitor of PRMT6, was added to columns 11, 12, 23, 24, rows I-P for the minimum signal control. A cocktail (40 ul) containing the PRMT6 enzyme was added by Multidrop Combi (Thermo-Fisher). The compounds were allowed to incubate with PRMT6 for 30 min at room temperature, then a cocktail (10 ul) containing SAM and peptide was added to initiate the reaction (final volume=51 ul). The final concentrations of the components were as follows: PRMT6 was 1 nM, ^3H-SAM was 200 nM, non-radiolabeled SAM was 250 nM, peptide was 75 nM, SAH in the minimum signal control wells was 1 mM, and the DMSO concentration was 2%. The assays were stopped by the addition of non-radiolabeled SAM (10 ul) to a final concentration of 400 uM, which dilutes the ^3H-SAM to a level where its incorporation into the peptide substrate is no longer detectable. 50 ul of the reaction in the 384-well polypropylene plate was then transferred to a 384-well Flashplate and the biotinylated peptides were allowed to bind to the streptavidin surface for at least 1 hour before being washed once with 0.1% Tween20 in a Biotek ELx405 plate washer. The plates were then read in a PerkinElmer TopCount plate reader to measure the quantity of ^3H-labeled peptide bound to the Flashplate surface, measured as disintegrations per minute (dpm) or alternatively, referred to as counts per minute (cpm).
as §1

T1 sequence (Q99873 with tags, fused parts or gaps): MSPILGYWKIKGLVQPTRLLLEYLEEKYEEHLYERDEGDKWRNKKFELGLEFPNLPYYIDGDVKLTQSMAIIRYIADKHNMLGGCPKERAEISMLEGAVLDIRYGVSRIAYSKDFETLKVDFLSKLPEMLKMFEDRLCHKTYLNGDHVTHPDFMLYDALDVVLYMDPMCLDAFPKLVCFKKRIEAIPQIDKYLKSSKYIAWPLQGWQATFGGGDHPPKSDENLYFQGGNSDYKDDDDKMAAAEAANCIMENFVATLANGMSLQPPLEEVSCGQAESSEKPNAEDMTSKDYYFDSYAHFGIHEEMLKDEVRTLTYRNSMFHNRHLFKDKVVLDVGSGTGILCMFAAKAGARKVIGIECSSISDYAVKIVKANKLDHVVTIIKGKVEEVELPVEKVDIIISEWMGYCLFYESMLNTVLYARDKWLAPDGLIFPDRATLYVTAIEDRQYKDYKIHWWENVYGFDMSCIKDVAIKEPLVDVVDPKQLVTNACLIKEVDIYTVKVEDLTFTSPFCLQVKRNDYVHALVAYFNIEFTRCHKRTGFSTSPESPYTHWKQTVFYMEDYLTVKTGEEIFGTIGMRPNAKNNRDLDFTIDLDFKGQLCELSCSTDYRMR

For orientation: IC50 means the concentration needed to halve the response being measured. Regarding `CNCCN(C)Cc1c([C@H]2CC[C@]3(CC2)CC(C)(C)CO3)nnn1C` [compound 54], the IC50 in assay [1] stood at 9.31 µM; in assay [2], 9.92 µM.

With `CN(CCN)Cc1cn(C)nc1[C@H]1CC[C@@]2(CC1)CC(C)(C)CO2` [compound 55], the IC50 was found to be 0.00728 µM in assay [1] and 0.191 µM in assay [2].

For the molecule `CN(CCN)Cc1cn(C)nc1[C@H]1CC[C@]2(CC1)CC(C)(C)CO2` [compound 56], the values for the IC50 in assay [1] and in assay [2] were 0.031 µM and 0.85 µM, respectively.

For `CNCCN(C)Cc1c([C@H]2CC[C@@]3(CC2)CC(C)(C)CO3)nnn1C` [compound 53], the IC50 in assay [1] is 5.85 µM; in assay [2], above 10 µM.
